Tests used:
repeat Tau (K18) [1] = target: T1, repeat Tau (K18) (Homo sapiens, UniProt P10636); experiment: UV-visible absorbance titration at […] nm; format: binding
repeat Tau (K18) [2] = target: T1, repeat Tau (K18); experiment: ThS fluorescence, inhibition of heparin-induced aggregation; format: biochemical

T1 sequence (P10636 561-689 limits assumed): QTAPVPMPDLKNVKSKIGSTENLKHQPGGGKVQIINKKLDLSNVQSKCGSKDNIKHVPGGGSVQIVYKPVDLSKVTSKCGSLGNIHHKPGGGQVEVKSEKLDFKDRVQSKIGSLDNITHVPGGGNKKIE

Kd (repeat Tau (K18) [1]): 3.5 µM
IC50 (repeat Tau (K18) [2]): 35.8 µM
SMILES: O=c1cc(-c2ccccc2)oc2cc(O)c(O)c(O)c12 [Baicalein]

Reference: publication doi:10.1101/704536v1 (biorxiv, 2019)
